The nature of data set [1]: pH shift dissolution test (pH 1.5 to 6.5). Format: physicochemical. As to conditions: for % Agent in Solution t = 2 mins: 2 minutes after adjustment of medium from pH 1.5 to pH 6.5, 37° C.; for % Agent in Solution t = 30 mins: 30 minutes after adjustment of medium from pH 1.5 to pH 6.5, 37° C.; for % Agent in Solution t = 60 mins: 60 minutes after adjustment of medium from pH 1.5 to pH 6.5, 37° C.; for % Agent in Solution t = 0 (˜pH 1.5): % by weight dissolved after 60 minutes in 0.07N HCl/0.2% NaCl medium, 37° C., before pH shift, >100% from HPLC experimental error; for Mean pH of medium at 60 minutes after pH adjustment (n = 2): pH shift test, 60 minutes after adjustment from pH 1.5 to pH 6.5. On the procedure: The vial was then rinsed with a further 50 ml of fresh dissolution medium and the washings added to the main dissolution medium to ensure complete transfer of the composition (total volume of medium 500 ml). The Control sample was weighed into a volumetric flask and pre-dissolved in 50 ml of dissolution medium via sonication. The composition was then added to 400 ml of dissolution medium. The flask was rinsed with a further 50 ml of fresh dissolution medium and the washings added to the main dissolution medium to ensure complete transfer of the composition (total volume of medium=500 ml). After 60 minutes at 37° C. (paddle speed 100 rpm) a sample (5 ml) was taken and 5 ml of fresh medium was added to retain a constant volume of dissolution medium.
The resulting solution was then made up to 100 ml with MilliQ water.
Samples (5 ml) were then removed with a plastic syringe at 2, 5, 15, 30, 45 and 60 minutes after pH adjustment and fresh medium (pH 6.5) added to maintain a constant volume of dissolution medium. […] ODS-3^1. (with guard) • detection wavelength: 247 nm • flow rate: 0.9 ml/min • injection volume: 20 μl • retention time: approximately 6 minutes
Footnote: column ex Hichrom containing 3 μm beads.

Data set [2] in a line: pH 6.5 dissolution test. The format is physicochemical. As to conditions: for % Agent in solution after 5 minutes in pH 6.5 medium / % Agent in solution after 30 minutes in pH 6.5 medium / % Agent in solution after 60 minutes in pH 6.5 medium: 37° C., 500 ml, 250 mg Agent; for Mean pH of medium at 60 minutes (n = 2) / Mean pH of medium at end of experiment (n = 2): pH 6.5 dissolution test; for Mean pH of medium at end of experiment (n = 2): final pH measured after 60 minutes. Here is the method: The following test measures dissolution of a composition in a pH 6.5 dissolution medium and simulates the pH environment found in the upper intestine.
The composition to be tested was placed into a 500 ml of a stirred dissolution medium at pH 6.5 at 37° C. (paddle speed 100 rpm). […] A fresh sample of dissolution medium was added after every sampling time point to maintain a constant volume of 500 ml dissolution medium throughout the test.
The vial was then rinsed with a further 50 ml of fresh dissolution medium and the washings added to the main dissolution medium to ensure complete transfer of the composition (total volume of dissolution medium=500 ml).

A short description of data set [3]: pKa and pH dependent aqueous solubility of the Agent. The format is physicochemical.
Data set [4] concerns non-small-cell lung cancer. As to conditions: 250 mg/day, non-small-cell lung cancer patients, IDEAL 1 and 2; cited from earlier work.

For `COc1cc2ncnc(Nc3ccc(F)c(Cl)c3)c2cc1OCCCN1CCOCC1` [Agent, 4-(3′-chloro4′-fluoroanilino)-7-methoxy-6-(3-morpholinopropoxy)quinazoline], in data set [1] (listed as Control), the “% Agent in Solution t = 2 mins” value is 6.50%, the “% Agent in Solution t = 30 mins” value is on record as 3.04%, the “% Agent in Solution t = 60 mins” value turned out to be 2.27% and the “% Agent in Solution t = 0 (˜pH 1.5)” value was 102.61%. The “Mean pH of medium at 60 minutes after pH adjustment (n = 2)” value in data set [1] (listed as Control) turned out to be 6.55. In data set [2] (listed as Control), the “% Agent in solution after 5 minutes in pH 6.5 medium” value came to 0.70%, the “% Agent in solution after 30 minutes in pH 6.5 medium” value is 1.52%, the “% Agent in solution after 60 minutes in pH 6.5 medium” value (“% Agent in solution after 60 minutes” for short) came to 1.40% and the “Mean pH of medium at 60 minutes (n = 2)” value was determined as 6.52. The “Mean pH of medium at end of experiment (n = 2)” value in data set [2] (listed as Control) was 6.52. Further, the “Solubility (in words)” value in data set [3] (free-base form, above pH 7) is “practically insoluble”. Moreover, the “Solubility (in words)” value in data set [3] (free-base form, pH 1) is listed as “soluble”. In addition, the “Solubility: aqueous solvent required to dissolve 1 g of Agent” value in data set [3] (free-base form, pH 6) was no less than 10000 mL. Besides, the pKa in data set [3] (two basic groups) was roughly 5.3. For the same compound, in data set [4], the adverse events entry is “majority of adverse events generally being mild to moderate skin and gastrointestinal disorders”; the response rates was 11.8-18.4%.

Regarding `COc1cc2ncnc(Nc3ccc(F)c(Cl)c3)c2cc1OCCCN1CCOCC1` [Comparative 4, 4-(3′-chloro4′-fluoroanilino)-7-methoxy-6-(3-morpholinopropoxy)quinazoline], in data set [1], the “% Agent in Solution t = 2 mins” value is given as 19.56%, the “% Agent in Solution t = 30 mins” value is given as 5.16%, the “% Agent in Solution t = 60 mins” value amounted to 3.30% and the “% Agent in Solution t = 0 (˜pH 1.5)” value is recorded as 97.74%. The “Mean pH of medium at 60 minutes after pH adjustment (n = 2)” value in data set [1] is 6.32. In addition, in data set [2], the “% Agent in solution after 5 minutes in pH 6.5 medium” value stood at 3.52%, the “% Agent in solution after 30 minutes in pH 6.5 medium” value stood at 1.54%, the “% Agent in solution after 60 minutes” value stood at 1.21% and the “Mean pH of medium at 60 minutes (n = 2)” value was found to be 6.33. In data set [2], the “Mean pH of medium at end of experiment (n = 2)” value is recorded as 6.33. Also, the “% Agent in solution after 60 minutes” value in data set [2] (listed as Comparative Example 4) is on record as 1.21%.

A word on the pKa: it is the negative logarithm of the acid dissociation constant. Low values mean a stronger acid or weaker base, high ones a weaker acid or stronger base.

(Values after patent publication US20070141141A1, “Pharmaceutical composition” (ASTRAZENECA AB, priority 2003, published 2007).)
